Source: PMC8399196, “Synthesis, Characterization, and Anticancer Activity of Benzothiazole Aniline Derivatives and Their Platinum (II) Complexes as New Chemotherapy Agents” (Pharmaceuticals, 2021)
Entries after “also recorded” stand apart in the source; their conditions may differ.

Tests used:
A549 cells = assay: CCK-8 cell viability assay, A549; assay type: cell-based; details: A549 human lung cancer cells, CCK-8, 24 h, mean ± SEM, n = 3
Procedure: (§1) Human colorectal adenocarcinoma cells (HT-29, ATCC® HTB-38), adenocarcinomic human alveolar basal epithelial cells (A549, ATCC® CCL-185), and prostate cancer (PC-3, ATCC® CRL-1435) were cultured in the growth medium, containing Roswell Park Memorial Institute Medium (RPMI1640) WelGENE, Daegu, Korea supplemented with 10% (v/v) fetal bovine serum (FBS, Gibco, Grand Island, NY, USA) and 1% antibiotics-antimycotics (Gibco). Human breast adenocarcinoma cells (MCF-7, ATCC® HTB-22™), hepatocellular carcinoma (HepG2, ATCC® HB-8065™), Rattus brain glioma (C6, ATCC ® CRL-2303™), and human renal carcinoma (Caki-2, ATCC® HTB-47™) cells were cultured in Dulbecco’s modified Eagle’s medium (DMEM, WelGENE, Daegu, Korea) supplemented with 10% (v/v) FBS (Gibco) and 1% antibiotics-antimycotics (Gibco). Mouse brain neural (NE-4C, ATCC® CRL-2925™) and human cervix adenocarcinoma cells (HeLa, ATCC® CCL-2™) were cultured in Eagle’s minimum essential medium (EMEM, ATCC® 30-2003™) supplemented with 10% FBS (Gibco) and 1% antibiotics-antimycotics (Gibco). Mouse liver normal cells (AML12, ATCC® CRL-2254™) were cultured in DMEM/F-12 (WelGENE) supplemented with 10% FBS (Gibco), 1 × ITS (10 μg/mL insulin, 5.5 μg/mL transferrin, 6.7 ng/mL selenium, Gibco), […] 1% antibiotics-antimycotics (Gibco). Human breast epithelial cells (MCF 10A, ATCC® CRL-10317™) were cultured in DMEM/F-12 (WelGENE) supplemented with 5% horse serum (Gibco), 20 ng/mL epidermal growth factor (EGF, Peprotech Inc., Rocky Hill, NJ, USA), […] (Sigma-Aldrich, St. Louis, MO, USA), 100 ng/mL colera toxin (Sigma-Aldrich), 10 μg/mL insulin (Sigma-Aldrich) and 1% antibiotics- (Gibco). Human colon normal epithelial cells (FHC, ATCC® CRL-18317™) were cultured in DMEM/F-12 (WelGENE) supplemented with 10% FBS (Gibco), 10 ng/mL cholera toxin (Sigma-Aldrich), 20 ng/mL EGF (Peprotech Inc.), 100 μg/mL hydrocortisone (Sigma-Aldrich), 1 × ITS (10 μg/mL insulin, 5.5 μg/mL transferrin, 6.7 ng/mL selenium, Gibco) and 1% antibiotics-antimycotics (with 100 units penicillin, 100 μg streptomycin and 250 ng amphotericin B per mL, Gibco). Cells were incubated in a humidified 5% CO2 atmosphere at 37 °C.
(§2) To evaluate cytotoxicity, cells were seeded in a 96-well plate (FHC, 0.5 × 10^4 cells/well; Caki-2 and MCF 10A, 1 × 10^4 cells/well; AML12, 1.2 × 10^4 cells/well; HeLa, HEK-293, A549, and PC-3, 1.5 × 10^4 cells/well; HT-29, MCF-7, C6, HepG2, and NE-4C, 2 × 10^4 cells/well). […] In addition, cell counting kit-8 (CCK-8, Dojindo Laboratories, Kumamoto, Japan) solution was added to each well, and the plate was incubated for 2 h. The absorbance was then measured at 450 nm using a microplate reader (SpectraMax i3, Molecular Devices, San Jose, CA, USA). The IC50 and logIC50 values were calculated in GraphPad Prism (GraphPad Prism Software Inc. Version 5.02, San Diego, CA, USA). All experiments were performed, independently, three times. The graph of logIC50 values represents the average value.

C6 cells = assay: CCK-8 cell viability assay, C6; assay type: cell-based, Rattus; details: C6 brain glioma cells, CCK-8, 24 h, mean ± SEM, n = 3
Procedure: as §1, §2

Caki-2 cells = assay: CCK-8 cell viability assay, Caki-2; assay type: cell-based; details: Caki-2 human renal cancer cells, CCK-8, 24 h, mean ± SEM, n = 3
Procedure: as §1, §2

HeLa cells = assay: CCK-8 cell viability assay, HeLa; assay type: cell-based; details: HeLa human cervical cancer cells, CCK-8, 24 h, mean ± SEM, n = 3
Procedure: as §1, §2

HepG2 cells = assay: CCK-8 cell viability assay, HepG2; assay type: cell-based; details: HepG2 human hepatic carcinoma cells, CCK-8, 24 h, mean ± SEM, n = 3
Procedure: as §1, §2

HT-29 cells = assay: CCK-8 cell viability assay, HT-29; assay type: cell-based; details: HT-29 human colon cancer cells, CCK-8, 24 h, mean ± SEM, n = 3
Procedure: as §1, §2

MCF-7 cells = assay: CCK-8 cell viability assay, MCF-7; assay type: cell-based; details: MCF-7 human breast cancer cells, CCK-8, 24 h, mean ± SEM, n = 3
Procedure: as §1, §2

PC-3 cells = assay: CCK-8 cell viability assay, PC-3; assay type: cell-based; details: PC-3 human prostate cancer cells, CCK-8, 24 h, mean ± SEM, n = 3
Procedure: as §1, §2

AML12 cells = assay: CCK-8 cell viability assay, AML12 normal cells; assay type: cell-based; details: AML12 normal mouse liver hepatocyte cells, CCK-8, 24 h, mean ± SEM, n = 3
Procedure: as §1, §2

FHC cells = assay: CCK-8 cell viability assay, FHC normal cells; assay type: cell-based; details: FHC normal human colon epithelial cells, CCK-8, 24 h, mean ± SEM, n = 3
Procedure: as §1, §2

HEK-293 cells = assay: CCK-8 cell viability assay, HEK-293 normal cells; assay type: cell-based; details: HEK-293 human embryonic kidney cells, CCK-8, 24 h, mean ± SEM, n = 3
Procedure: as §2

MCF-10A cells = assay: CCK-8 cell viability assay, MCF-10A normal cells; assay type: cell-based; details: MCF-10A normal human breast epithelial cells, CCK-8, 24 h, mean ± SEM, n = 3
Procedure: as §1, §2

NE-4C cells = assay: CCK-8 cell viability assay, NE-4C normal cells; assay type: cell-based; details: NE-4C mouse brain neural stem cells, CCK-8, 24 h, mean ± SEM, n = 3
Procedure: as §1, §2

[1] = Stability in buffered aqueous solution by UV-Vis spectroscopy; assay type: physicochemical; details: for Stability, time-dependent UV-Vis spectrum: 1 mM in PBS (L1Pt: 2% DMSO in PBS), physiological pH 7.4, t = 0, 7, 24 h, 200-450 nm; for Stability, time-dependent UV-Vis spectrum at other pH-values: 1 mM in PBS, acidic (pH 2), weakly acidic (pH 5), alkaline (pH 12), t = 0, 7, 24 h
Procedure: An indispensable feature of any promising anticancer agent is its thermodynamic stability in aqueous media. All prospective agents should be able to reach their target under the conditions encountered in living organisms. Therefore, the stability of the compounds was measured at 1 mM in phosphate-buffered saline (PBS) solution using UV–Vis spectroscopy. […] The stability of the metal complexes is often dependent on the pH value and the pH 4.5–5.0 is crucial since endosomal uptake of the complexes by lysosomes can occur.

[2] = Solubility in water / aqueous media; assay type: physicochemical

| SMILES | IC50 (A549 cells) [µM] | IC50 (C6 cells) [µM] | IC50 (Caki-2 cells) [µM] | IC50 (HeLa cells) [µM] | IC50 (HepG2 cells) [µM] | IC50 (HT-29 cells) [µM] | IC50 (MCF-7 cells) [µM] | IC50 (PC-3 cells) [µM] | IC50 (AML12 cells) [µM] | IC50 (FHC cells) [µM] | IC50 (HEK-293 cells) [µM] | IC50 (MCF-10A cells) [µM] | IC50 (NE-4C cells) [µM] | IC50 (C6 cells; Rattus norvegicus) [µM] | IC50 (MCF-7 cells; MCF7) [µM] | IC50 (HEK-293 cells; HEK293) [µM] | IC50 (NE-4C cells; Neural stem cell) [µM] | other results |
| --- | --- | --- | --- | --- | --- | --- | --- | --- | --- | --- | --- | --- | --- | --- | --- | --- | --- | --- |
| O=C(Nc1ccc(-c2nc3ccccc3s2)cc1)C1CNC2=[N+]1[Pt-2]([Cl])([Cl])[n+]1ccccc12 (stereo not drawn) [Compound L3Pt] | > 500 | > 500 | > 500 | > 500 | > 500 | > 500 | > 500 | > 500 | > 500 | > 500 | 206 ± 7.4 | > 500 | 32.4 ± 6 | – | – | – | – | – |
| N.N.[Cl][Pt][Cl] [Cisplatin, cis-diamminedichloroplatinum-(II), reference compound] | > 500 | 227 ± 34.3 | > 500 | 26.2 ± 5.6 | 54.2 ± 31.8 | 39.1 ± 0.6 | 204 ± 27.3 | > 500 | 32.1 ± 4.4 | > 500 | 65.5 ± 4.1 | 95.9 ± 6.7 | 9 ± 0.3 | – | – | – | – | IC50 (AML12 cells; listed as cisplatin): 32 µM |
| O=C(Nc1ccc(-c2nc3ccccc3s2)cc1)C1CNC(c2ccccn2)=N1 (stereo not drawn) [Compound L3, 2-Pyridin-2-yl-4,5-dihydro-1H-imidazole-4-carboxylic acid (4-benzothiazol-2-yl-phenyl)amide] | > 500 | – | > 500 | 98.9 ± 3.5 | > 500 | 70.5 ± 0.2 | – | 130 ± 34.7 | > 500 | > 500 | – | > 500 | – | 142 ± 15.3 | 190 ± 16.5 | > 500 | 22.4 ± 2.4 | – |
| NCC(N)C(=O)Nc1ccc(-c2nc3ccccc3s2)cc1 (stereo not drawn) [Compound L1, 2,3-Diamino-N-(4-benzothiazol-2-yl-phenyl)-propionamide] | 100 ± 8.4 | – | 75.6 ± 3.4 | 41.9 ± 3.4 | 5.9 ± 0.5 | 29.9 ± 0.3 | – | 94.9 ± 0.8 | 138 ± 24.1 | 72.7 ± 2 | – | 65.1 ± 1.9 | – | 77.8 ± 9.7 | 65.9 ± 12.3 | 68.1 ± 2.8 | 36.8 ± 3.7 | Stability, time-dependent UV-Vis spectrum [1]: did not display any significant changes throughout 24 h; Stability, time-dependent UV-Vis spectrum at other pH-values [1]: no obvious changes in the absorptions peak; Solubility in water / aqueous media [2]: soluble in water |
| Nc1ccc(-c2nc3ccccc3s2)cc1 [BTA, 2-(4-aminophenyl)-benzothiazole, reference compound] | > 500 | – | 463 ± 44.1 | 76.4 ± 23.4 | 52 ± 5.7 | 275 ± 5 | – | 182 ± 7.8 | > 500 | > 500 | – | 401 ± 136 | – | 425 ± 47.7 | 104 ± 28.6 | > 500 | 60.9 ± 2.9 | – |
| O=C(Nc1ccc(-c2nc3ccccc3s2)cc1)C1C[NH2+][Pt-2]([Cl])([Cl])[NH2+]1 (stereo not drawn) [Compound L1Pt] | 167 ± 11.2 | 93.3 ± 22.7 | 106 ± 8.5 | 64.7 ± 0.3 | 7.5 ± 0.1 | 42.6 ± 5.6 | 59 ± 11 | 55.7 ± 7.5 | 139 ± 0.8 | 64.3 ± 2.4 | 54.9 ± 2.8 | 46.9 ± 5.1 | 25.7 ± 1.7 | – | – | – | – | Stability, time-dependent UV-Vis spectrum [1]: did not display any significant changes throughout 24 h; also recorded: remains stable over 24 h; Stability, time-dependent UV-Vis spectrum at other pH-values [1]: no obvious changes in the absorptions peak; Solubility in water / aqueous media [2]: poor solubility in aqueous media |
| O=C(Nc1ccc(-c2nc3ccccc3s2)cc1)C1C[N+]2=Cc3ccccc3[O][Pt-2]23[O]c2ccccc2C=[N+]13 (stereo not drawn) [Compound L2Pt] | > 500 | > 500 | > 500 | 221 ± 15.8 | 31.6 ± 3.6 | 173 ± 3.2 | > 500 | > 500 | > 500 | > 500 | 212 ± 14.9 | > 500 | 47 ± 4.1 | – | – | – | – | – |
| O=C(Nc1ccc(-c2nc3ccccc3s2)cc1)C(C/N=C/c1ccccc1O)/N=C/c1ccccc1O (stereo not drawn) [Compound L2, N-(4-Benzothiazol-2-yl-phenyl)-2,3-bis-[(2-hydroxy-benzylidene)amino] propionamide] | 182.4 ± 0.8 | – | 159 ± 4.3 | 47 ± 6 | 14.2 ± 7 | 135 ± 4.4 | – | 116 ± 5 | > 500 | 189 ± 10.3 | – | 79.3 ± 25.4 | – | 143 ± 32.7 | 98.1 ± 7.9 | 139 ± 20.1 | 28.2 ± 0.1 | – |
